From PMC11887451, “Leveraging Immunogenic Cell Death to Enhance the Immune Response against Malignant Pleural Mesothelioma Tumors” (Journal of the American Chemical Society, 2025)

Key:
[1] = system: human nonmalignant mesothelioma cell line Met5A; experiment: MTT cytotoxicity assay, 72 h, Met5A; assay type: cell-based; conditions: exposure time 72 h
Text: Cell lines and culture conditions
Mouse malignant mesothelioma cancer cell line AB12, human nonmalignant mesothelioma cancer cell line Met5A (mesothelial cells), mouse macrophage cell line J774 and human monocytic cell line THP-1 were obtained from American Type Culture Collection (ATCC) (Rockville, MD, USA). Human malignant mesothelioma cell lines VMC23 (epithelial), Meso82 (sarcomatous), Meso92 (biphasic), were kindly provided by Prof. Walter Berger (Medical University of Vienna). All cells except for J774 were cultured in RPMI and J774 cells were cultured in DMEM. Both types of media were supplemented with 10% FBS and 1% penicillin-streptomycin (10,000 U/mL). Cells were grown in tissue culture flasks (75 cm2 and 25 cm2, SPL Life Sciences Co., Ltd., Korea). All cell lines were grown at 37 °C in a humidified atmosphere of 95% air and 5% CO 2 and passaged when they reached 80–90% confluency. All Au stock solutions were prepared in 1% DMSO in the respected medium, ensuring that cell viability was not inhibited. The Au concentration in the stock solutions was confirmed through inductively coupled plasma optical emission spectrometry. The stock solution of pemetrexed (10 mM) was prepared in Milli -Q water.
Inhibition of c ell viability assay
(§1) The cytotoxicity of compounds was determined using an MTT colorimetric test. The cells were harvested from culture flasks by trypsinization and seeded into Cellstar 96 -well microculture plates (Greiner Bio -One) at the seeding density of 6000 cells per well (6 × 10^4 cells/mL). After
(§2) the cells were allowed to resume exponential growth for 16 h, they were exposed to drugs at
(§3) different concentrations in media for 72 h. The drugs were diluted in a complete medium at the desired concentration added to each well (100 μL) and serially diluted in other wells. After exposure for 72 h, the media was replaced with MTT in media (5 mg/mL, 100 μL/well) and
(§4) incubated for an additional 50 min. Subsequently, the medium was aspirated, and the purple formazan crystals formed in viable cells were dissolved in DMSO (100 μL/well). Optical densities were measured at 570 nm using a BioTek Synergy H1 microplate and MultiskanTM SkyHigh plate readers. The quantity of viable cells was expressed in terms of treated/control (T/C) values in comparison to untreated control cells, and 50% inhibitory concentrations (IC 50) were calculated from concentration-effect curves by interpolation. An evaluation was based on means from at least three independent experiments, each comprising three replicat es per

[2] = system: patient-derived Meso92 cell line (biphasic MPM); experiment: MTT cytotoxicity assay, 72 h, Meso92; assay type: cell-based, human; conditions: exposure time 72 h
[3] = system: human malignant mesothelioma cell line LO68; experiment: MTT cytotoxicity assay, 72 h, LO68; assay type: cell-based; conditions: exposure time 72 h
Text: (§5) Human malignant mesothelioma cancer cell lines JU77 and LO68 were obtained from Cell Bank Australia (Children's Medical Research Institute, Westmead, Australia). Mouse malignant mesothelioma cancer cell line AB12, human nonmalignant mesothelioma cancer cell line Met5A (mesothelial cells), mouse macrophage cell line J774 and human monocytic cell line THP-1 were obtained from American Type Culture Collection (ATCC) (Rockville, MD, USA). Human malignant mesothelioma cell lines VMC23 (epithelial), Meso82 (sarcomatous), Meso92 (biphasic), were kindly provided by Prof. Walter Berger (Medical University of Vienna). All cells except for J774 were cultured in RPMI and J774 cells were cultured in DMEM. Both types of media were supplemented with 10% FBS and 1% penicillin-streptomycin (10,000 U/mL). Cells were grown in tissue culture flasks (75 cm2 and 25 cm2, SPL Life Sciences Co., Ltd., Korea). All cell lines were grown at 37 °C in a humidified atmosphere of 95% air and 5% CO 2 and passaged when they reached 80–90% confluency. All Au stock solutions were prepared in 1% DMSO in the respected medium, ensuring that cell viability was not inhibited.
as §1, §2, §3, §4
(§6) DMSO had not impact on the cell viability at the concentrations used.

[4] = system: murine malignant mesothelioma cell line AB12; experiment: MTT cytotoxicity assay, 72 h, AB12; assay type: cell-based, mouse; conditions: exposure time 72 h
Text: as §5, §1, §2, §3, §4, §6

[5] = system: extracellular HMGB1 from AB12 cells; experiment: Western blot of extracellular HMGB1 in supernatants; assay type: cell-based, mouse; conditions: AB12, 5 × IC50, 240 min
Protocol: cells were lysed with 200 µL of RIPA buffer, scraped, collected into 2 mL microtubes, sonicated for 45 sec on ice and centrifuged at 12000 × g for 20 min at 4 °C.
Protein concentration was measured by BCA Protein Assay Kit (PierceTM). 30 µg protein were reconstituted in loading buffer (5× Laemmli Buffer with 5% DTT) and heated at 95 °C for 10 min. Subsequently, the protein mixtures were resolved on 10% SDS-PAGE gels (BeyoGelTM)by electrophoresis ( 80 V for 20 min followed by 1 00 V for 60 min) and transferred onto a nitrocellulose membrane (250 mA for 2 h).
For Western Blot detection of extracellular HMGB1 protein, AB12 cells were seeded into Cellstar 6-well plates (Greiner Bio -One) at a density of 1 × 10^6 cells/well (2 ml per well). […]
After incubation with HRP-conjugated secondary antibodies (Catalogue Number: 7074P2, Cell Signaling Technology) in 2% BSA (w/v) in wash buffer at RT for 2 h, the membranes were washed with wash buffer 3 times for 5-10 min. Immune complexes were detected with SuperSignal™ West Atto Ultimate Sensitivity Substrate (A38554, Thermo Scientific) and analyzed using enhanced chemiluminescence imaging (Biorad). β-Actin was used as a loading control. […]
GA5010)). Luminescence was measured using Molecular Devices SpectraMax iD5 plate reader. […] The luminescence data was recorded for a total duration of 6 h following the treatment. […]

[6] = system: human malignant mesothelioma cell line JU77; experiment: MTT cytotoxicity assay, 72 h, JU77; assay type: cell-based; conditions: exposure time 72 h
Text: as §5, §1, §2, §3, §4, §6

[7] = system: patient-derived VMC23 cell line (epithelioid MPM); experiment: MTT cytotoxicity assay, 72 h, VMC23; assay type: cell-based, human; conditions: exposure time 72 h
[8] = system: patient-derived Meso84 cell line (sarcomatoid MPM); experiment: MTT cytotoxicity assay, 72 h, Meso84; assay type: cell-based, human; conditions: exposure time 72 h
HMGB1 in AB12 cells = experiment: HMGB1 detection, confocal microscopy; assay type: cell-based, mouse; conditions: AB12, 5 × IC50
Protocol: mL per dish). […] Afterwards, the […]
concentrations for 2 h at 37°C. […]
were stored in 1 mL of PBS. The confocal images were acquired by Laser Confocal Scanning […]
dishes were washed twice with 1 mL of PBS. The dishes were then incubated with HMGB1 […]
washed with 1 mL of PBS. Samples were stored in 1 mL of PBS. The confocal images were acquired by Laser Confocal Scanning Microscope (Leica SPE).
AB12 cells were seeded into the confocal dish (Biosharp) at a density of 3 × 10^5 cells/well (1 […]
mL per well). […] The cell culture […]
medium was aspirated and washed with PBS (2 × 1 ml). In a dimly lit setting, a solution of H2DCFDA (2',7'-dichlorodihydrofluorescein diacetate) in 1 × HBSS (10 μM, 1 mL) was added to each well and allowed to incubate for 15 min at 37 °C. Following this, the H 2DCFDA solution was aspirated and the wells were rinsed with HBSS (2 × 1 ml). Subsequently, the cells were treated with fresh colo urless cell culture medium containing compounds of interest at […]
Subsequently, the cells were treated with a culture medium containing 1 μM of Mitotracker TM Deep Red, 1 μM ER-Tracker™ Blue-White DPX and 1 μg/mL of Hoechst 33342 for 30 minutes. […] Images were captured using Laser Confocal Scanning Microscope (Leica SPE) and analyzed using the Microscope Software Platform LAS X Life Science. […]

[9] = system: AB12 cells in BALB/c mice; experiment: In vivo vaccination model; parameters: species or system mouse; conditions: within the first 30 days after vaccination, n = 8
[10] = system: hepatocellular carcinoma tumors; parameters: method as in PMID 38261008, PMID 36827091; conditions: cited from earlier work
colon cancer cells = system: colon cancer cells; parameters: method as in PMID 33237764; conditions: immunocompetent mice; cited from earlier work

CCCC[N+](CCCC)=C1[S][Au-]2([S]1)[c]1ccccc1Cc1cccc[n+]12.F[P-](F)(F)(F)(F)F (stereo not drawn) [2C] gave an IC50 [1] of 1.4 µM, an IC50 [2] of 3.1 ± 0.7 µM and an IC50 [3] of 3 ± 0.3 µM. The IC50 [4] was 2.7 ± 0.3 µM, the “extracellular HMGB1 in supernatant, Western Blot” value [5] was “presence of extracellular HMGB1” and the IC50 [6] was 2.7 ± 0.4 µM. The IC50 [7] was 2.4 ± 0.5 µM, the IC50 [8] was 3.9 ± 0.7 µM and the “HMGB1 expression, confocal microscopy” value (HMGB1 in AB12 cells) was “confirmed by confocal microscopy”. The “mice that developed tumors after vaccination” value [9] was “≈ 50%”.

In the case of CCn1cc[n+](CC)[c]1[Au-][C]#CCOC(=O)[C@@]1(C)CC[C@]2(C)CC[C@]3(C)C(=CC(=O)[C@@H]4[C@@]5(C)CC[C@H](OC(=O)CCCCC[P+](c6ccccc6)(c6ccccc6)c6ccccc6)C(C)(C)[C@@H]5CC[C@]43C)[C@@H]2C1.[Br-] [Au4], the “tumor-free time of vaccinated mice” value [10] is given as “more than 30 days”.

In the case of Cc1cc(C)c(-n2cc[n+](CCO)[c]2[Au-][c]2n(-c3c(C(C)C)cccc3C(C)C)c3c([n+]2-c2c(C(C)C)cccc2C(C)C)C(=O)c2ccccc2C3=O)c(C)c1 [Au1], the “tumor-free time of vaccinated mice” value (colon cancer cells) is listed as “more than 42 days”.
